Measured values reported in ChEMBL document CHEMBL5236584, “Design and synthesis of boron-containing ALK inhibitor with favorable in vivo efficacy” (Bioorg Med Chem, 2022).

How the values were obtained:
[1] = system: NCI-H2228; assay: cells; conditions: Homo sapiens, NCI-H2228, 72 h
Description: Antiproliferative activity against human NCI-H2228 cells assessed as reduction in cell viability measured after 72 hrs by CCK8 assay

[2] = Toxicity in BALB/c nu/nu mouse xenografted with human NCI-H2228 cells at 50 mg/kg, po qd for 23 days; type: organism-based; conditions: in vivo, 552 h, time 23 day
[3] = Toxicity in BALB/c nu/nu mouse xenografted with human NCI-H2228 cells assessed as body weight loss at 50 mg/kg, po qd for 23 days; type: organism-based; conditions: in vivo, 552 h, time 23 day
[4] = AUC (0 to t) in human NCI-H2228 cells xenografted BALB/c nu/nu mouse plasma at 50 mg/kg, po qd for 23 days by UPLC-MS/MS analysis; type: ADME, organism-based; set-up: time 23 day, dose 50 mg/kg, route po
[5] = Tmax in human NCI-H2228 cells xenografted BALB/c nu/nu mouse plasma at 50 mg/kg, po qd for 23 days by UPLC-MS/MS analysis; type: ADME, organism-based; conditions: time 23 day
[6] = Cmax in human NCI-H2228 cells xenografted BALB/c nu/nu mouse plasma at 50 mg/kg, po qd for 23 days by UPLC-MS/MS analysis; type: ADME, organism-based; set-up: time 23 day, dose 50 mg/kg, route po
[7] = Drug uptake in tumor of BALB/c nu/nu mouse xenografted with human NCI-H2228 cells at 50 mg/kg, po qd for 23 days and measured at 6 hrs post-last drug dosage by UPLC-MS/MS analysis; type: ADME, organism-based, Neoplasm; conditions: time 23 day, read-out: Drug uptake
[8] = in vitro; conditions: human, liver microsomes
Description: Half life in human liver microsomes at 1 uM preincubated for 5 mins followed by NADPH addition and measured for 60 mins by LC-MS/MS analysis

[9] = in vitro; conditions: human, liver microsomes; remark: listed apart in the source
Description: Intrinsic clearance in human liver microsomes at 1 uM preincubated for 5 mins followed by NADPH addition and measured for 60 mins by LC-MS/MS analysis

[10] = in vitro; conditions: human, liver microsomes; remark: listed apart in the source
Description: Metabolic stability of the compound in human liver microsomes assessed as parent compound remaining at 1 uM preincubated for 5 mins followed by NADPH addition and measured after 60 mins by LC-MS/MS analysis

[11] = in vitro; conditions: mouse, liver microsomes
Description: Half life in mouse liver microsomes at 1 uM preincubated for 5 mins followed by NADPH addition and measured for 60 mins by LC-MS/MS analysis

[12] = in vitro; conditions: mouse, liver microsomes; remark: listed apart in the source
Description: Intrinsic clearance in mouse liver microsomes at 1 uM preincubated for 5 mins followed by NADPH addition and measured for 60 mins by LC-MS/MS analysis

[13] = in vitro; conditions: mouse, liver microsomes; remark: listed apart in the source
Description: Metabolic stability of the compound in mouse liver microsomes assessed as parent compound remaining at 1 uM preincubated for 5 mins followed by NADPH addition and measured after 60 mins by LC-MS/MS analysis

[14] = system: NCI-H2228; assay: animal or person; conditions: Mus musculus, NCI-H2228, po, 552 h, read-out: TGI

`Cc1cc(Nc2ncc(Cl)c(Nc3cccc4c3B(O)OC4)n2)c(OC(C)C)cc1C1CCNCC1` gave an IC50 [1] of 617 nM.

Molecule `COc1cc(N2CCC(N(C)C)CC2)ccc1Nc1ncc(Cl)c(Nc2cccc3c2B(O)OC3)n1` has an IC50 [1] of 624 nM.

Work on `COc1cc(N2CCC(N3CCN(C)CC3)CC2)ccc1Nc1ncc(Cl)c(Nc2cccc3c2B(O)OC3)n1` yielded an IC50 [1] of 699 nM.

With `COc1cc(N2CCC(N(C)C)CC2)ccc1Nc1ncc(Cl)c(Nc2ccc3c(c2)B(O)OC3)n1` the Activity [2] was “Non-Toxic”, the Activity [3] was “Non-Toxic” and the AUC(0-t) at 552 h [4] was 15400 ng·h/mL. It also gave a Tmax [5] of 3.6 h, a Cmax [6] of 3200 ng/mL and a concentration at 552 h [7] of 1200 ng/g. It also gave an IC50 [1] of 520 nM, a half-life at 1 h, 1 µM [8] of 3.97 h and a microsomal CLint at 1 h, 1 µM [9] of 5.8 µL/min/mg. For the same molecule, the remaining at 1 h, 1 µM [10] was 82.6%, the half-life at 1 h, 1 µM [11] was 0.633 h and the microsomal CLint at 1 h, 1 µM [12] was 36.5 µL/min/mg. For the same molecule, the remaining at 1 h, 1 µM [13] was 32.8% and the inhibition in vivo at 50 mg/kg [14] was 52%.

For `Cc1cc(Nc2ncc(Cl)c(Nc3ccc4c(c3)B(O)OC4)n2)c(OC(C)C)cc1C1CCNCC1`, the IC50 [1] was 2550 nM.

Molecule `COc1cc(N2CCC(N3CCN(C)CC3)CC2)ccc1Nc1ncc(Cl)c(Nc2ccc3c(c2)B(O)OC3)n1` has an IC50 [1] of 1130 nM.

Work on `COc1cc(N2CCN(C)CC2)ccc1Nc1ncc(Cl)c(Nc2ccc3c(c2)B(O)OC3)n1` yielded an IC50 [1] of 825 nM, a half-life at 1 h, 1 µM [8] of 2.97 h and a microsomal CLint at 1 h, 1 µM [9] of 7.8 µL/min/mg. It also gave a remaining at 1 h, 1 µM [10] of 77.8%, a half-life at 1 h, 1 µM [11] of 0.725 h and a microsomal CLint at 1 h, 1 µM [12] of 31.9 µL/min/mg. For the same molecule, the remaining at 1 h, 1 µM [13] was 37.4%.
